Measurements as given in patent US20180250306A1, “ALDEHYDE CONJUGATES AND USES THEREOF” (ALDEYRA THERAPEUTICS, INC., priority 2015, published 2018).

Legend:
[1] = Preliminary single dose i.p. pharmacokinetics of NS2 and NS2-SSA adduct formation in wild type mice; format: in vivo, wild type C57B16 mice
Description: Mice were 41-46 days old on the day of treatment, and groups (n=3) were balanced for age, gender and starting weight (18±3 g). […] The results of this study informed the design of a subsequent 8-hour single dose study to measure additional biochemical outcomes (GHB and related metabolites) in both SSADH deficient mice and wild type littermates.
A preliminary assessment of single dose, i.p. pharmacokinetics (PK) was conducted in wild type C57B16 mice. Mice were 41-46 days old at the time of dosing. […] Three mice per timepoint were used for pharmacokinetic analysis. The study design is outlined in Table 6 below.
Homogenates (100 μL) were protein-precipitated with cold acetonitrile containing 0.1% formic acid (900 μL). Serum samples (25 μL) were protein-precipitated with 425 μL of cold acetonitrile containing 0.1% formic acid. Samples were centrifuged at 2,500×g then supernatant was transferred to a clean tube and dried under a constant heated flow of nitrogen (50° C.). Samples were reconstituted in 100 μL of mobile phase A (water with 0.1% formic acid, LC-MS/MS grade reagents).
These studies were performed only in wild-type C57B16 mice (n=21). […] The mice ranged in age from 41-46 days of age.

α-SMA = assay: Western Blot of α-SMA in cardiac fibroblasts; format: cell-based, neonatal rats; conditions: for α-SMA level (Western Blot): H2O2 stimulated cardiac fibroblasts
Description: (§1) Thirty hearts from neonatal rats were minced and digested (Neonatal Cardiomyocyte Isolation System, LK003303, Worthington). After tissue digestion and cell dissociation, cell suspensions were plated into 35 mm dishes or onto coverslips in wells of 24-well plates. Serum-free DMEM was added to the cell suspensions and the cells allowed to adhere for 2 hrs. After two hours, the cell suspension was removed and the adherent cells were fed with DMEM containing 10% fetal bovine serum (FBS). Cells were maintained in DMEM+10% FBS for 24 hours before treatments. Treatment duration was 24 hours.
(§2) Cell samples were divided in to 2 groups, stimulated with H2O2 or not stimulated with H2O2. […] The cells that were treated with H2O2 contained a final concentration of 0.001% in the wells. Drug was dissolved in 9.5% Captisol®, to a stock concentration of 5 mg/ml. […] Cells were treated for 24 hours then either fixed for immunostaining or collected as lysates for Western Blot analysis.
Whole cell lysates were used for Western blotting; nuclear and cytosolic fractions were not prepared. DMEM from cells plated in 35 mm plates was removed, the cells rinsed quickly in PBS, then incubated in 500 ul cold RIPA buffer for 20-30 minutes at 4° C. under gentle rocking. Following RIPA incubation, cells were scraped from the dish using cell scrapers and frozen at −80° C. overnight to increase cell lysing. Once thawed, cells were sonicated for 1 minute at 80% maximal power (Biologics Model 150 B/T). Samples were centrifuged at 13K for 10 min at 4° C. then supernatant was separated from pellet for analysis by gel electrophoresis. BCA protein analysis was run to determine total protein, samples normalized to 0.2 ug/uL, and then loaded onto Novex 8% Bolt gels. Gels were run for 35 min at 200 V in MOPS buffer or until the lower molecular weight band reached the bottom of the gel. Protein was then transferred to Hybond 0.45 uM Nitrocellulose (GE Healthcare) for 1 hour. Blots were blocked for 1 hr at room temperature in 5% BSA/TBSt. […]

IL-1β = assay: Western Blot of IL-1β levels in cardiac fibroblasts; format: cell-based, neonatal rats; conditions: p<0.01
Description: as §1, §2
(§3) Whole cell lysates were used for Western blotting; nuclear and cytosolic fractions were not prepared. DMEM from cells plated in 35 mm plates was removed, the cells rinsed quickly in PBS, then incubated in 500 ul cold RIPA buffer for 20-30 minutes at 4° C. under gentle rocking. Following RIPA incubation, cells were scraped from the dish using cell scrapers and frozen at −80° C. overnight to increase cell lysing. […]

JNK = assay: Western Blot of MAPK signaling pathways in cardiac fibroblasts; format: cell-based, neonatal rats; conditions: NS2 treatment at any level; single blot
Description: as §1, §2, §3

circulating cytokines = assay: LPS model of inflammation in the mouse, ELISA of circulating cytokines; format: in vivo, mice
Description: Male C57BI/6 mice are dosed with disclosed compounds 30 minutes before they are exposed to LPS (20 mg/kg). Two hours after the LPS exposure, blood is collected from the mice and an ELISA is conducted to determine the amount of circulating cytokines. Treatment with disclosed compounds leads to reduction in proinflammatory cytokines, such as IL-5 and IL-1β, IL-17, and TNF. Also, treatment with disclosed compounds results in elevated anti-inflammatory cytokines, such as IL-10.

[2] = Aldehyde adduct formation over time (product HPLC peak)
Description: It is not possible to conclude if this is the result of poor dissociation (from cyclodextrin) or poor interaction with the aldehyde. Best fit lines over this period give excellent fit to data. […] It can be used to relatively rank each of the samples examined, including NS2. The data were first evaluated over a 7 h time window.

[3] = Consumption of 4HNE over time (HPLC, 254 nm)
Source text: 5 of 6 samples show consumption of 4HNE. One sample (2-(3-aminoquinolin-2-yl)propan-2-ol) overlaps 4HNE HPLC peak using current method. Best fit lines over this period give poorer fit to data than product formation data. Rate of 4HNE consumption can be used as an approximation of binding kinetics. […] The data were used to rank relatively each of the samples examined, including NS-2 but excluding 2-(3-aminoquinolin-2-yl)propan-2-ol.

[4] = hamster cheek pouch radiation; cited from earlier work
[5] = wild type mice, single dose 10 mg/kg i.p.
[6] = rank from most effective (1) to least

CC(C)(O)c1nc2ccc(Cl)cc2cc1N [NS2, 2-(3-amino-6-chloroquinolin-2-yl)propan-2-ol]
concentration at 24 h ([1]; both sexes, C57B16 (wild type), mouse, serum, ip, wild type mice, single dose 10 mg/kg i.p., by 24 hours): < 50 nM
tolerability ([1]; mouse, in vivo, ip, 10 mg/kg): tolerated
brain penetration of NS2 [1, 5]: good brain penetration
order of NS2 pharmacokinetics [1, 5]: first-order pharmacokinetics
peak serum concentration of NS2 [1, 5]: 43.1 ± 15.4 µM
time to peak serum concentration of NS2 [1, 5]: 0.5 h
peak concentration of NS2 in brain ([1]; wild type mice, single dose 10 mg/kg i.p., brain): 52.4±22.9
peak concentration of NS2 in liver ([1]; wild type mice, single dose 10 mg/kg i.p., liver): 116±3.1
α-SMA level (Western Blot) (α-SMA; 10 μM): no significant change
α-SMA level (Western Blot) (α-SMA; increased dose (100 μM, 1 mM), p<0.01): further α-SMA decreases, which were significant
α-SMA level (Western Blot) compared to control (α-SMA; non-stimulated cardiac fibroblasts, 10 μM, 100 μM, 1 mM): significant decreases
IL-1β levels (Western Blot) (IL-1β; H2O2-stimulated cells): significant decreases
IL-1β levels (Western Blot) (IL-1β; unstimulated cells): significant decreases
JNK-pJNK (Western Blot) (JNK): no changes
pro-inflammatory cytokines (circulating cytokines; such as IL-5, IL-1β, IL-17, TNF): downregulate
anti-inflammatory cytokines (circulating cytokines; such as IL-10): upregulate
Gradient of product HPLC peak increase (rate of adduct formation) ([2]; 7 h time window): (Gradient 2.22,
Gradient of product HPLC peak increase (rate of adduct formation) ([2]; 23 h time window): (Gradient 1.33,
Formation of Product, ranking, 7 Hours [2, 6]: 2
Formation of Product, ranking, 23 Hours [2, 6]: 2
Gradient of 4HNE consumption ([3]; 23 h): (Gradient −0.04,
Gradient of 4HNE consumption ([3]; first 7 h, analysis at 254 nm): (Gradient −0.15,
Consumption of 4HNE, ranking, 7 Hours [3, 6]: 1
Consumption of 4HNE, ranking, 23 Hours ([3]; rank from most effective (1) to least, ranks 1-4 essentially identical): 3
overall fibrosis at the site of injury over time [4]: decrease
rate of recovery from injury [4]: significant increase
